# Assay results: US20130245081A1, “Compositions and Methods for Treating Amyotrophic Lateral Sclerosis” (priority 2009, published 2013)
# “And” between values parts separate entries of the source, which are not always exact repeats. Identical values can stand only once. Like-named read-outs stand apart in the source and are kept apart here.
# Test system: patients with ALS
# [1] = 50 mg, through the end of the study
# [2] = 300 mg, No Riluzole Use, through Week 28
# [3] = 300 mg, Riluzole Use, through Week 28
# [4] = 300 mg, any post-baseline visit
# [5] = 300 mg, double-blind treatment period
# 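Also: adverse event data gathered at every clinic visit and phone contact, after first study drug dose, in a blinded trial, counts of affected subjects.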
compound,measurement,setting,value
"CCCN[C@@H]1CCc2nc(N)sc2C1 [dexpramipexole, (6R)-2-amino-4,5,6,7-tetrahydro-6-(propylamino)benzothiazole]",≧1 serious treatment-related TEAE,[1],1 (2%) N (%)
same,≧1 severe TEAE,[1],13 N (%) and 13 (27%) N (%)
same,≧1 treatment-related TEAE,[1],16 (33%) N (%)
same,subjects with increase from baseline in QTcF >30 msec,300 mg,5 subjects
same,AE: Anxiety,[2],1 (7%) N (%)
same,AE: Depression,[2],1 (7%) N (%)
same,AE: Dysarthria,[2],2 (13%) N (%)
same,AE: Dysphagia,[2],2 (13%) N (%)
same,AE: Fall,[2],4 (27%) N (%)
same,AE: Muscular weakness,[2],3 (20%) N (%)
same,AE: Nausea,[2],0 N (%)
same,AE: Oedema peripheral,[2],0 N (%)
same,AE: Pharyngolaryngeal pain,[2],1 (7%) N (%)
same,AE: Salivary hypersecretion,[2],2 (13%) N (%)
same,AE: Sinusitis,[2],0 N (%)
same,AE: Urinary tract infection,[2],1 (7%) N (%)
same,AE: Anxiety,[3],4 (14%) N (%)
same,AE: Depression,[3],4 (14%) N (%)
same,AE: Dysarthria,[3],3 (10%) N (%)
same,AE: Dysphagia,[3],2 (7%) N (%)
same,AE: Fall,[3],7 (24%) N (%)
same,AE: Headache,[3],2 N (%) and 2 (7%) N (%)
same,AE: Muscular weakness,[3],4 (14%) N (%)
same,AE: Oedema peripheral,[3],1 (3%) N (%)
same,AE: Pharyngolaryngeal pain,[3],2 (7%) N (%)
same,AE: Salivary hypersecretion,[3],3 (10%) N (%)
same,AE: Urinary tract infection,[3],3 (10%) N (%)
same,incidence of ECGs with QTcB increased >30 msec from baseline,[4],30%
same,subjects with QTcF interval >450 msec,[4],3 subjects
same,AEs related to ALS as assessed by the Investigator,[5],80%
same,hemoglobin value in 1 subject (potentially clinically significant),[5],7.8 g/dL
same,subjects with prolonged QTcB,[5],3 subjects
same,subjects with serum chemistry abnormalities of potential clinical significance,[5],4 subjects
same,neutrophil count in 1 subject with neutropenia,"300 mg, noted at baseline of the placebo washout period",1180 µL⁻¹
same,ALS-related TEAE: Affect liability,"300 mg, through Week 28",0 N (%)
same,ALS-related TEAE: Arthralgia,"300 mg, through Week 28",1 (2%) N (%)
same,ALS-related TEAE: Choking,"300 mg, through Week 28",0 N (%)
same,ALS-related TEAE: Constipation,"300 mg, through Week 28",4 (9%) N (%)
same,ALS-related TEAE: Contusion,"300 mg, through Week 28",1 (2%) N (%)
same,ALS-related TEAE: Dehydration,"300 mg, through Week 28",2 (5%) N (%)
same,ALS-related TEAE: Depression,"300 mg, through Week 28",1 (2%) N (%)
same,ALS-related TEAE: Disease progression,"300 mg, through Week 28",2 (5%) N (%)
same,ALS-related TEAE: Dysarthria,"300 mg, through Week 28",5 (11%) N (%)
same,ALS-related TEAE: Dysphagia,"300 mg, through Week 28",3 (7%) N (%)
same,ALS-related TEAE: Dysphasia,"300 mg, through Week 28",1 (2%) N (%)
same,ALS-related TEAE: Dyspnoea,"300 mg, through Week 28",5 (11%) N (%)
same,ALS-related TEAE: Dyspnoea exertional,"300 mg, through Week 28",2 (5%) N (%)
same,ALS-related TEAE: Fall,"300 mg, through Week 28",10 (23%) N (%)
same,ALS-related TEAE: Fatigue,"300 mg, through Week 28",2 (5%) N (%)
same,ALS-related TEAE: Gastrointestinal Disorders,"300 mg, through Week 28",11 (25%) N (%)
same,ALS-related TEAE: General Disorders and Administration Site Conditions,"300 mg, through Week 28",6 (14%) N (%)
same,ALS-related TEAE: Increased upper airway secretion,"300 mg, through Week 28",2 (5%) N (%)
same,"ALS-related TEAE: Injury, Poisoning and Procedural Complications","300 mg, through Week 28",10 (23%) N (%)
same,ALS-related TEAE: Investigations,"300 mg, through Week 28",5 (11%) N (%)
same,ALS-related TEAE: Metabolism and Nutrition Disorders,"300 mg, through Week 28",4 (9%) N (%)
same,ALS-related TEAE: Muscle contractions involuntary,"300 mg, through Week 28",2 (5%) N (%)
same,ALS-related TEAE: Muscle spasticity,"300 mg, through Week 28",1 (2%) N (%)
same,ALS-related TEAE: Muscle twitching,"300 mg, through Week 28",2 (5%) N (%)
same,ALS-related TEAE: Muscular weakness,"300 mg, through Week 28",7 (16%) N (%)
same,ALS-related TEAE: Musculoskeletal and Connective Tissue Disorders,"300 mg, through Week 28",14 (32%) N (%)
same,ALS-related TEAE: Musculoskeletal pain,"300 mg, through Week 28",3 (7%) N (%)
same,ALS-related TEAE: Myalgia,"300 mg, through Week 28",0 N (%)
same,ALS-related TEAE: Neck pain,"300 mg, through Week 28",1 (2%) N (%)
same,ALS-related TEAE: Nervous System Disorders,"300 mg, through Week 28",10 (23%) N (%)
same,ALS-related TEAE: Oedema peripheral,"300 mg, through Week 28",1 (2%) N (%)
same,ALS-related TEAE: Pain in extremity,"300 mg, through Week 28",0 N (%)
same,ALS-related TEAE: Psychiatric Disorders,"300 mg, through Week 28",1 (2%) N (%)
same,ALS-related TEAE: Respiratory failure,"300 mg, through Week 28",0 N (%)
same,"ALS-related TEAE: Respiratory, Thoracic and Mediastinal Disorders","300 mg, through Week 28",11 (25%) N (%)
same,ALS-related TEAE: Salivary hypersecretion,"300 mg, through Week 28",5 (11%) N (%)
same,ALS-related TEAE: Vital capacity decreased,"300 mg, through Week 28",1 (2%) N (%)
same,ALS-related TEAE: Weight decreased,"300 mg, through Week 28",2 (5%) N (%)
same,Number of TEAEs,"300 mg, through Week 28",303
same,Number of serious TEAEs,"300 mg, through Week 28",9
same,Number of serious treatment-related TEAE,"300 mg, through Week 28",1
same,Number of severe TEAEs,"300 mg, through Week 28",12
same,Number of treatment-related TEAEs,"300 mg, through Week 28",46
same,Subjects with a TEAE with action taken of study drug discontinued,"300 mg, through Week 28",0 N (%)
same,TEAE: Anxiety,"300 mg, through Week 28",5 (11%) N (%)
same,TEAE: Arthralgia,"300 mg, through Week 28",3 (7%) N (%)
same,TEAE: Cardiac Disorders,"300 mg, through Week 28",8 (18%) N (%)
same,TEAE: Constipation,"300 mg, through Week 28",11 (25%) N (%)
